Here are results for 24 compounds from patent publication US20250275959A1, “COMPOUNDS AND METHODS OF THEIR USE” (LEXICON PHARMACEUTICALS, INC., priority 2024, published 2025).

A value given as a limit tells only on which side of the number the result lay.

The target of assay [1] is T1, hACSL5 (Homo sapiens (Human), UniProt Q9ULC5). The assay is described as follows: Human ACSL5 coupled enzyme Amplex Red assay. The format is biochemical. Particulars: read-out: hACSL5 IC50. A digest of the protocol:
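Amplex Red coupled readout: 1 mM ATP, 25 μM oleate and 30 μM CoA were added to compound-preincubated enzyme (20 nM, residues 33-683, insect-cell expressed, His-tagged) with coupling peroxidase and acyl-CoA oxidase at pH 7.6. Signal was read at 535/590 nm after 10 minutes at 25° C., and Hill fits yielded half-maximal and maximal inhibition.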
Target sequence in this assay (Q9ULC5 33-683): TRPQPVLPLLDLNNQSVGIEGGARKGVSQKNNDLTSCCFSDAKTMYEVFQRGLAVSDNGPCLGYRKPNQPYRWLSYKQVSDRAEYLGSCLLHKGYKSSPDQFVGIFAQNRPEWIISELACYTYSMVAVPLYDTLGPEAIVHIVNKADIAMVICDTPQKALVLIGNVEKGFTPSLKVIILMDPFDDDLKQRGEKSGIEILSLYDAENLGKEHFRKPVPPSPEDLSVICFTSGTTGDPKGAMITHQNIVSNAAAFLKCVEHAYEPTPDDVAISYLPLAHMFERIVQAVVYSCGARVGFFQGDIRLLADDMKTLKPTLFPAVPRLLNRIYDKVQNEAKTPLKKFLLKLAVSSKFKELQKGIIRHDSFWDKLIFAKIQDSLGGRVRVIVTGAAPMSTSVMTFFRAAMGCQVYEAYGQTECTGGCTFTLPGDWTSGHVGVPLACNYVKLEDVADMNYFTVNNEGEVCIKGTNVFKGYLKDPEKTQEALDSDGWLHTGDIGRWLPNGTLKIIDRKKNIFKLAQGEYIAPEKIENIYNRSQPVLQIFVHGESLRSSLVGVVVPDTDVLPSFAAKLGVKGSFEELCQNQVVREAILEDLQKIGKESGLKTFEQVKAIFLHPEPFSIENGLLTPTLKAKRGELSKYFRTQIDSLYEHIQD

Assay [2] deals with T1, hACSL5. The assay is described as follows: Cell-based assay (CBA) with B12FA in hACSL5-transfected Expi293F / FlpIn TRex293 cells. The conditions noted are these: hACSL5-expressing cells. A digest of the protocol: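 hACSL5-expressing Expi293F or tetracycline-induced FlpIn TRex293 cells, serum- and glucose-starved 1 h, then treated 3 h with serially diluted compound plus 20 µM B12FA. After fixation, 630/520 nm emission ratio (ex 485 nm) gave % inhibition versus no-inhibitor and 10 µM compound/non-induced controls; IC50 by Hill fit.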
Target sequence in this assay (Q9ULC5 whole entry, the tested form may be a part): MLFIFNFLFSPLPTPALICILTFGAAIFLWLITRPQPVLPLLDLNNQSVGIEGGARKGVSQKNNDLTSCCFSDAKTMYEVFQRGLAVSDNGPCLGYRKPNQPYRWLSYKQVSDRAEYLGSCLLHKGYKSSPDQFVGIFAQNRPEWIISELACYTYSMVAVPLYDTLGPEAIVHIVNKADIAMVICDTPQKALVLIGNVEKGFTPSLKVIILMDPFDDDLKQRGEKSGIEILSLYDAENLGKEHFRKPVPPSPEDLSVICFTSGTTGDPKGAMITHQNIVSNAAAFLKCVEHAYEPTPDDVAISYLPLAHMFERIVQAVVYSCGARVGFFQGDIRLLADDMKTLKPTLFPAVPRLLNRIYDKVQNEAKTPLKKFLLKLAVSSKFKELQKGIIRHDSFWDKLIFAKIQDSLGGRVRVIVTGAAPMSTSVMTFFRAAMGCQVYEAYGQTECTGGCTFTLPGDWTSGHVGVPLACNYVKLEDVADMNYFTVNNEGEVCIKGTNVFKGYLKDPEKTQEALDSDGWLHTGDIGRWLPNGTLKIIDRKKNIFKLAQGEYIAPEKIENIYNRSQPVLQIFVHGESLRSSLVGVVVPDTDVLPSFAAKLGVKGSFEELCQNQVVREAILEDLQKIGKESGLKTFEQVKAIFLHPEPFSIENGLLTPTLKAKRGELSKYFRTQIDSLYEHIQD

A word on the IC50: it is the concentration at which inhibition is half-maximal. Take `CC[C@@H](Oc1ccc(C(=O)NS(=O)(=O)N2CCC(OCCN(C)C)CC2)c(F)c1F)c1ccc(OCC2CC2)cn1` [(R)-4-(1-(5-(cyclopropylmethoxy)pyridin-2-yl)propoxy)-N-((4-(2-(dimethylamino)ethoxy)piperidin-1-yl)sulfonyl)-2,3-difluorobenzamide]: the IC50 was less than 100 nM in assay [1] and 100 to 500 nM in assay [2].
For the compound `CC[C@@H](Oc1ccc(C(=O)NS(=O)(=O)c2ccc(OC3CCN(CC(F)F)CC3)cc2)c(F)c1F)c1ccc(OCC2CC2)cn1` [(R)-4-(1-(5-(cyclopropylmethoxy)pyridin-2-yl)propoxy)-N-((4-((1-(2,2-difluoroethyl)piperidin-4-yl)oxy)phenyl)sulfonyl)-2,3-difluorobenzamide], the IC50 was less than 100 nM in assay [1] and 100 to 500 nM in assay [2].
Turning to `CC[C@@H](Oc1ccc(C(=O)NS(=O)(=O)c2ccc(OC3CCN(CC4CC4)CC3)cc2)c(F)c1F)c1ccc(OCC2CC2)cn1` [(R)-4-(1-(5-(cyclopropylmethoxy)pyridin-2-yl)propoxy)-N-((4-((1-(cyclopropylmethyl)piperidin-4-yl)oxy)phenyl)sulfonyl)-2,3-difluorobenzamide], the IC50 in assay [1] and in assay [2] was less than 100 nM each time.
Consider `CC[C@@H](Oc1ccc(C(=O)NS(=O)(=O)N2CCC(OC3CCN(CC4CC4)CC3)CC2)c(F)c1F)c1ccc(OCC2CC2)cn1` [(R)-4-(1-(5-(cyclopropylmethoxy)pyridin-2-yl)propoxy)-N-((4-((1-(cyclopropylmethyl)piperidin-4-yl)oxy)piperidin-1-yl)sulfonyl)-2,3-difluorobenzamide], for which the concentration for half-maximal inhibition (IC50) in assay [1] was less than 100 nM; in assay [2], 100 to 500 nM.
As for `CC[C@@H](Oc1ccc(C(=O)NS(=O)(=O)c2ccc(OC3CCN(CC)CC3)cc2)c(F)c1F)c1ccc(OCC2CC2)cn1` [(R)-4-(1-(5-(cyclopropylmethoxy)pyridin-2-yl)propoxy)-N-((4-((1-ethylpiperidin-4-yl)oxy)phenyl)sulfonyl)-2,3-difluorobenzamide], the IC50 in assay [1] and in assay [2] was less than 100 nM in each case.
Regarding `CC[C@@H](Oc1ccc(C(=O)NS(=O)(=O)N2CCC(OC3CCN(C)CC3)CC2)cc1C(F)(F)F)c1ccc(OCC2CC2)cn1` [(R)-4-(1-(5-(cyclopropylmethoxy)pyridin-2-yl)propoxy)-N-((4-((1-methylpiperidin-4-yl)oxy)piperidin-1-yl)sulfonyl)-3-(trifluoromethyl)benzamide], the half-inhibitory concentration (IC50) in assay [1] and in assay [2] was less than 100 nM in each case.
As for `CC[C@@H](Oc1ccc(C(=O)NS(=O)(=O)N2CCC(CN3CCN(CC)CC3)CC2)c(F)c1F)c1ccc(OCC2CC2)cn1` [(R)-4-(1-(5-(cyclopropylmethoxy)pyridin-2-yl)propoxy)-N-((4-((4-ethylpiperazin-1-yl)methyl)piperidin-1-yl)sulfonyl)-2,3-difluorobenzamide], the figures for the half-inhibitory concentration (IC50) in assay [1] and in assay [2] were less than 100 nM and greater than 500 nM, respectively.
The matching figures for `CC[C@@H](Oc1ccc(C(=O)NS(=O)(=O)N2CCN(CC3CC3)CC2)c(F)c1F)c1ccc(OCC2CC2)cn1` [(R)-4-(1-(5-(cyclopropylmethoxy)pyridin-2-yl)propoxy)-N-((4-(cyclopropylmethyl)piperazin-1-yl)sulfonyl)-2,3-difluorobenzamide]: less than 100 nM and 100 to 500 nM.
The matching figures for `CC[C@@H](Oc1ccc(C(=O)NS(=O)(=O)N2CCN(C3CC3)CC2)c(F)c1F)c1ccc(OCC2CC2)cn1` [(R)-4-(1-(5-(cyclopropylmethoxy)pyridin-2-yl)propoxy)-N-((4-cyclopropylpiperazin-1-yl)sulfonyl)-2,3-difluorobenzamide]: less than 100 nM and less than 100 nM.
For the compound `CC[C@@H](Oc1ccc(C(=O)NS(=O)(=O)N2CCN(CC)CC2)c(F)c1F)c1ccc(OCC2CC2)cn1` [(R)-4-(1-(5-(cyclopropylmethoxy)pyridin-2-yl)propoxy)-N-((4-ethylpiperazin-1-yl)sulfonyl)-2,3-difluorobenzamide], the half-inhibitory concentration (IC50) in assay [1] and in assay [2] was less than 100 nM in each case.
Consider `CC[C@@H](Oc1ccc(C(=O)NS(=O)(=O)N2CCN(CC)CC2)cc1C(F)(F)F)c1ccc(OCC2CC2)cn1` [(R)-4-(1-(5-(cyclopropylmethoxy)pyridin-2-yl)propoxy)-N-((4-ethylpiperazin-1-yl)sulfonyl)-3-(trifluoromethyl)benzamide], for which the IC50 in assay [1] and in assay [2] was less than 100 nM in each case.
On to `CC[C@@H](Oc1ccc(C(=O)NS(=O)(=O)N2CCN(C)CC2)cc1C(F)(F)F)c1ccc(OCC2CC2)cn1` [(R)-4-(1-(5-(cyclopropylmethoxy)pyridin-2-yl)propoxy)-N-((4-methylpiperazin-1-yl)sulfonyl)-3-(trifluoromethyl)benzamide], for which the IC50 in assay [1] and in assay [2] was less than 100 nM throughout.
For the compound `CC[C@@H](Oc1ccc(C(=O)NS(=O)(=O)N2CC3(CC(OCCN(C)C)C3)C2)c(F)c1F)c1ccc(OCC2CC2)cn1` [(R)-4-(1-(5-(cyclopropylmethoxy)pyridin-2-yl)propoxy)-N-((6-(2-(dimethylamino)ethoxy)-2-azaspiro[3.3]heptan-2-yl)sulfonyl)-2,3-difluorobenzamide], the IC50 in assay [1] was 100 to 500 nM; in assay [2], greater than 500 nM.
In the case of `CC[C@@H](Oc1ccc(C(=O)NS(=O)(=O)c2ccc(CN3CCN(CC)CC3)nc2)c(F)c1F)c1ccc(OCC2CC2)cn1` [(R)-4-(1-(5-(cyclopropylmethoxy)pyridin-2-yl)propoxy)-N-((6-((4-ethylpiperazin-1-yl)methyl)pyridin-3-yl)sulfonyl)-2,3-difluorobenzamide], the IC50 in assay [1] was less than 100 nM; in assay [2], greater than 500 nM.
On the same counts, the results for `CC[C@@H](Oc1ccc(C(=O)NS(=O)(=O)C(C)(C)CN(C)C)c(F)c1F)c1ccc(Oc2ccccn2)cn1` [(R)-N-((1-(dimethylamino)-2-methylpropan-2-yl)sulfonyl)-2,3-difluoro-4-(1-(5-(pyridin-2-yloxy)pyridin-2-yl)propoxy)benzamide] are less than 100 nM and less than 100 nM.
In the case of `CC[C@@H](Oc1ccc(C(=O)NS(=O)(=O)c2ccc(OCCn3ccnc3)cc2)c(F)c1F)c1ccc(OCCOC)cn1` [(R)-N-((4-(2-(1H-imidazol-1-yl)ethoxy)phenyl)sulfonyl)-2,3-difluoro-4-(1-(5-(2-methoxyethoxy)pyridin-2-yl)propoxy)benzamide], the IC50 is less than 100 nM in assay [1] and greater than 500 nM in assay [2].
Turning to `CC[C@@H](Oc1ccc(C(=O)NS(=O)(=O)c2ccc(OCCNC3CC3)cc2)c(F)c1F)c1ccc(OCC2CC2)cn1` [(R)-N-((4-(2-(cyclopropylamino)ethoxy)phenyl)sulfonyl)-4-(1-(5-(cyclopropylmethoxy)pyridin-2-yl)propoxy)-2,3-difluorobenzamide], the IC50 in assay [1] and in assay [2] was less than 100 nM each time.
As for `CC[C@@H](Oc1ccc(C(=O)NS(=O)(=O)c2ccc(OCCN(C)C)cc2)c(F)c1F)c1cc(Oc2ccccn2)ccn1` [(R)-N-((4-(2-(dimethylamino)ethoxy)phenyl)sulfonyl)-2,3-difluoro-4-(1-(4-(pyridin-2-yloxy)pyridin-2-yl)propoxy)benzamide], the figures for the 50% inhibitory concentration (IC50) in assay [1] and in assay [2] were less than 100 nM and 100 to 500 nM, respectively.
In the case of `CC[C@@H](Oc1ccc(C(=O)NS(=O)(=O)c2ccc(OCCN(C)C)cc2)c(F)c1F)c1ccc(OCCOC)cn1` [(R)-N-((4-(2-(dimethylamino)ethoxy)phenyl)sulfonyl)-2,3-difluoro-4-(1-(5-(2-methoxyethoxy)pyridin-2-yl)propoxy)benzamide], the figures for the IC50 in assay [1] and in assay [2] were 100 to 500 nM and greater than 500 nM, respectively.
`C[C@@H](Oc1ccc(C(=O)NS(=O)(=O)c2ccc(OCCN(C)C)cc2)c(F)c1F)c1ccc(Oc2ccccn2)cn1` [(R)-N-((4-(2-(dimethylamino)ethoxy)phenyl)sulfonyl)-2,3-difluoro-4-(1-(5-(pyridin-2-yloxy)pyridin-2-yl)ethoxy)benzamide]: the figures for the IC50 in assay [1] and in assay [2] were less than 100 nM and 100 to 500 nM, respectively.
As to `CC[C@@H](Oc1ccc(C(=O)NS(=O)(=O)c2ccc(OCCN(C)C)cc2)c(F)c1F)c1ccc(Oc2ccccn2)cn1` [(R)-N-((4-(2-(dimethylamino)ethoxy)phenyl)sulfonyl)-2,3-difluoro-4-(1-(5-(pyridin-2-yloxy)pyridin-2-yl)propoxy)benzamide], the IC50 in assay [1] was less than 100 nM; in assay [2] it was 100 to 500 nM.
On to `C[C@@H](Oc1ccc(C(=O)NS(=O)(=O)c2ccc(OCCN(C)C)cc2)cc1C(F)(F)F)c1ccc(Oc2ccccn2)cn1` [(R)-N-((4-(2-(dimethylamino)ethoxy)phenyl)sulfonyl)-4-(1-(5-(pyridin-2-yloxy)pyridin-2-yl)ethoxy)-3-(trifluoromethyl)benzamide], for which the IC50 in assay [1] and in assay [2] was less than 100 nM in each case.
On to `CC[C@@H](Oc1ccc(C(=O)NS(=O)(=O)c2ccc(OCCN(C)C)cc2)cc1C(F)(F)F)c1ccc(Oc2ccccn2)cn1` [(R)-N-((4-(2-(dimethylamino)ethoxy)phenyl)sulfonyl)-4-(1-(5-(pyridin-2-yloxy)pyridin-2-yl)propoxy)-3-(trifluoromethyl)benzamide], for which the IC50 in assay [1] and in assay [2] was less than 100 nM throughout.
Consider `CC[C@@H](Oc1ccc(C(=O)NS(=O)(=O)c2ccc(OC34CCN(CC3)C4)cc2)c(F)c1F)c1ccc(OCC2CC2)cn1` [(R)-N-((4-((1-azabicyclo[2.2.1]heptan-4-yl)oxy)phenyl)sulfonyl)-4-(1-(5-(cyclopropylmethoxy)pyridin-2-yl)propoxy)-2,3-difluorobenzamide], for which the IC50 is less than 100 nM in assay [1] and 100 to 500 nM in assay [2].
